Assay results: ChEMBL document CHEMBL1201862, “PubChem BioAssay data set” (2004)
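How tested: cells in 96-well plates exposed to compound for 48 hours at five concentrations. The concentration for 50% growth inhibition is given as GI50.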 The source made the active and inactive calls. Rule as the data show it: active = GI50 up to about 1.1 µM and inactive = higher.

How the values were obtained:
Experiment in all cases: DTP human tumour cell line panel, 48 h
786-0 = system: 786-0
CAKI-1 = system: CAKI-1
COLO 205 = system: COLO 205
HCC 2998 = system: HCC 2998
HCT-15 = system: HCT-15
HOP-62 = system: HOP-62
IGROV-1 = system: IGROV-1
K562 = system: K562
KM12 = system: KM12
MDA-MB-231 = system: MDA-MB-231
Malme-3M = system: Malme-3M
NCI-H460 = system: NCI-H460
OVCAR-3 = system: OVCAR-3
OVCAR-4 = system: OVCAR-4
OVCAR-8 = system: OVCAR-8
SF-539 = system: SF-539
SK-MEL-2 = system: SK-MEL-2
SNB-19 = system: SNB-19
TK-10 = system: TK-10
U-251 = system: U-251

Row | SMILES | GI50 (786-0) | GI50 (CAKI-1) | GI50 (COLO 205) | GI50 (HCC 2998) | GI50 (HCT-15) | GI50 (HOP-62) | GI50 (IGROV-1) | GI50 (K562) | GI50 (KM12) | GI50 (MDA-MB-231) | GI50 (Malme-3M) | GI50 (NCI-H460) | GI50 (OVCAR-3) | GI50 (OVCAR-4) | GI50 (OVCAR-8) | GI50 (SF-539) | GI50 (SK-MEL-2) | GI50 (SNB-19) | GI50 (TK-10) | GI50 (U-251)
1 | N#CCc1nc(-c2ccccc2)n[nH]1 | > 100 µM (inactive) | > 100 µM (inactive) | > 100 µM (inactive) | > 100 µM (inactive) | > 100 µM | > 100 µM (inactive) | > 100 µM (inactive) | 76.6 µM (inactive) | > 100 µM (inactive) | > 100 µM (inactive) | > 100 µM (inactive) | > 100 µM (inactive) | > 100 µM (inactive) | > 100 µM (inactive) | > 100 µM (inactive) | > 100 µM (inactive) | > 100 µM (inactive) | 74 µM (inactive) | > 100 µM (inactive) | –
2 | COC(=O)C1=C(C(=O)OC)SC(=C2S[C@@H]3[C@@H]4C[C@H]([C@@H]3S2)[C@H]2C(=O)OC(=O)[C@@H]42)S1 | > 100 µM (inactive) | > 100 µM (inactive) | > 100 µM (inactive) | > 100 µM (inactive) | > 100 µM | > 100 µM (inactive) | > 100 µM (inactive) | > 100 µM (inactive) | > 100 µM (inactive) | > 100 µM (inactive) | > 100 µM (inactive) | – | > 100 µM (inactive) | > 100 µM (inactive) | > 100 µM (inactive) | > 100 µM (inactive) | > 100 µM (inactive) | > 100 µM (inactive) | > 100 µM (inactive) | > 100 µM (inactive)
3 | N#C/C(N)=C(C#N)/N=C/Nc1ccc(N)cc1 | > 100 µM (inactive) | > 100 µM (inactive) | > 100 µM (inactive) | > 100 µM (inactive) | > 100 µM | > 100 µM (inactive) | > 100 µM (inactive) | > 100 µM (inactive) | > 100 µM (inactive) | > 100 µM (inactive) | > 100 µM (inactive) | > 100 µM (inactive) | > 100 µM (inactive) | > 100 µM (inactive) | > 100 µM (inactive) | > 100 µM (inactive) | > 100 µM (inactive) | > 100 µM (inactive) | > 100 µM (inactive) | > 100 µM (inactive)
4 | CC/C=C/C[C@H](O)[C@H]1C[C@H]2O[C@H](CC(=O)OC)C[C@H]2O1 | > 100 µM (inactive) | > 100 µM (inactive) | > 100 µM (inactive) | > 100 µM (inactive) | > 100 µM | > 100 µM (inactive) | > 100 µM (inactive) | > 100 µM (inactive) | > 100 µM (inactive) | > 100 µM (inactive) | > 100 µM (inactive) | > 100 µM (inactive) | > 100 µM (inactive) | > 100 µM (inactive) | > 100 µM (inactive) | – | > 100 µM (inactive) | > 100 µM (inactive) | – | > 100 µM (inactive)
5 | O=C(NCCCNCCCCNCCCNC(=O)C(F)(F)F)C(F)(F)F | > 100 µM (inactive) | 20 µM (inactive) | > 100 µM (inactive) | 76.4 µM (inactive) | > 100 µM | > 100 µM (inactive) | > 100 µM (inactive) | – | > 100 µM (inactive) | > 100 µM (inactive) | > 100 µM (inactive) | > 100 µM (inactive) | > 100 µM (inactive) | > 100 µM (inactive) | > 100 µM (inactive) | > 100 µM (inactive) | > 100 µM (inactive) | – | > 100 µM (inactive) | > 100 µM (inactive)
6 | C/C(=N\NC(=S)Nc1ccccc1)c1nc2cccnc2[nH]1 | 2.54 µM (inactive) | 4.63 µM (inactive) | 3.78 µM (inactive) | 2.91 µM (inactive) | 2.66 µM | 8.47 µM (inactive) | 3.48 µM (inactive) | 3.35 µM (inactive) | 7.08 µM (inactive) | 1.06 µM (active) | 2.18 µM (inactive) | 1.54 µM (inactive) | 0.456 µM (active) | 0.927 µM (active) | 2.76 µM (inactive) | 1.46 µM (inactive) | 16.9 µM (inactive) | 5.96 µM (inactive) | – | 2.49 µM (inactive)
7 | Cc1c(/N=N/c2ccccc2)c(C)n(C2OC(CO)C(O)C(O)C2O)c(=S)c1C#N (stereo not drawn) | 31.6 µM (inactive) | 40.2 µM (inactive) | 42 µM (inactive) | 21.8 µM (inactive) | 28.9 µM | 25.5 µM (inactive) | 37.7 µM (inactive) | 24.4 µM (inactive) | 33.5 µM (inactive) | 45.3 µM (inactive) | 32.6 µM (inactive) | 31.3 µM (inactive) | 21.6 µM (inactive) | 45.8 µM (inactive) | – | 24.1 µM (inactive) | 16.2 µM (inactive) | 34.8 µM (inactive) | 27 µM (inactive) | 23.2 µM (inactive)
8 | Cc1ccc(C)c2c1NC(=O)/C2=N\Nc1ccccc1[N+](=O)[O-] | 61.5 µM (inactive) | > 100 µM (inactive) | > 100 µM (inactive) | > 100 µM (inactive) | > 100 µM | 55.8 µM (inactive) | 10.7 µM (inactive) | 74.1 µM (inactive) | > 100 µM (inactive) | > 100 µM (inactive) | – | > 100 µM (inactive) | > 100 µM (inactive) | 38 µM (inactive) | – | 98.2 µM (inactive) | 78 µM (inactive) | > 100 µM (inactive) | > 100 µM (inactive) | 85.5 µM (inactive)
9 | N#Cc1c(-c2ccc(Cl)cc2)c(C#N)c(=O)n(NS(=O)(=O)c2ccccc2)c1O | 29.8 µM (inactive) | 21 µM (inactive) | 29.9 µM (inactive) | 13.8 µM (inactive) | 22.3 µM | 27 µM (inactive) | 24.2 µM (inactive) | 29.1 µM (inactive) | 23.7 µM (inactive) | 23.3 µM (inactive) | 49 µM (inactive) | 19.9 µM (inactive) | – | 27.1 µM (inactive) | 28.8 µM (inactive) | 20.7 µM (inactive) | 19.6 µM (inactive) | 37 µM (inactive) | 39.1 µM (inactive) | 32.7 µM (inactive)
10 | N/C(=N\c1ccccc1Cl)c1ccccc1N | > 100 µM (inactive) | > 100 µM (inactive) | > 100 µM (inactive) | > 100 µM (inactive) | > 100 µM | > 100 µM (inactive) | 45.8 µM (inactive) | > 100 µM (inactive) | > 100 µM (inactive) | > 100 µM (inactive) | > 100 µM (inactive) | > 100 µM (inactive) | > 100 µM (inactive) | > 100 µM (inactive) | > 100 µM (inactive) | – | > 100 µM (inactive) | > 100 µM (inactive) | > 100 µM (inactive) | > 100 µM (inactive)
11 | CCOC(=O)c1ccc(Nc2nc3ccccc3nc2C(=O)OCC)cc1 | 57.7 µM (inactive) | > 100 µM (inactive) | > 100 µM (inactive) | > 100 µM (inactive) | > 100 µM | > 100 µM (inactive) | > 100 µM (inactive) | > 100 µM (inactive) | 75.5 µM (inactive) | > 100 µM (inactive) | > 100 µM (inactive) | > 100 µM (inactive) | > 100 µM (inactive) | > 100 µM (inactive) | > 100 µM (inactive) | > 100 µM (inactive) | > 100 µM (inactive) | > 100 µM (inactive) | > 100 µM (inactive) | > 100 µM (inactive)
12 | O=c1/c(=C\c2ccccc2)sc2n1C(c1ccccc1)C1(O)CCCCC1N=2 (stereo not drawn) | > 100 µM (inactive) | > 100 µM (inactive) | – | 67.1 µM (inactive) | > 100 µM | > 100 µM (inactive) | > 100 µM (inactive) | 45.2 µM (inactive) | – | 95.7 µM (inactive) | > 100 µM (inactive) | 90.2 µM (inactive) | > 100 µM (inactive) | 50.6 µM (inactive) | > 100 µM (inactive) | – | 62.1 µM (inactive) | > 100 µM (inactive) | > 100 µM (inactive) | > 100 µM (inactive)
13 | COc1ccc(/N=N/C(=O)NC(CC(C)C)C(N)=O)cc1 (stereo not drawn) | > 31.6 µM (inactive) | > 31.6 µM (inactive) | 15.3 µM (inactive) | > 31 µM (inactive) | > 24.4 µM | > 100 µM (inactive) | > 100 µM (inactive) | 1.43 µM (inactive) | 5.27 µM (inactive) | > 31.6 µM (inactive) | > 100 µM (inactive) | 11.6 µM (inactive) | > 50 µM (inactive) | > 31.6 µM (inactive) | 36.9 µM (inactive) | 22.9 µM (inactive) | > 100 µM (inactive) | > 100 µM (inactive) | > 31.6 µM (inactive) | > 100 µM (inactive)
14 | COc1cc([C@@H]2c3cc4c(cc3[C@@H](Nc3ccc(NC(=O)c5cc(NC(=O)c6cc([N+](=O)[O-])cn6C)cn5C)cc3)[C@H]3COC(=O)[C@H]23)OCO4)cc(OC)c1O | 0.593 µM (active) | 0.323 µM (active) | 2.31 µM (inactive) | 6.04 µM (inactive) | 5.73 µM | 0.361 µM (active) | 0.216 µM (active) | 0.0493 µM (active) | 12.5 µM (inactive) | > 38.8 µM (inactive) | 4.35 µM (inactive) | 0.0303 µM (active) | > 49.4 µM (inactive) | > 43.7 µM (inactive) | 0.76 µM (active) | 0.364 µM (active) | > 100 µM (inactive) | 15.8 µM (inactive) | > 65.8 µM (inactive) | 10.3 µM (inactive)
15 | Oc1cc(O)c2c(c1)O[C@H](c1cc(O)c(O)c(O)c1)[C@H](O)C2 [EPIGALLOCATECHIN] | 18.2 µM (inactive) | 33.1 µM (inactive) | 18.2 µM (inactive) | > 10 µM (inactive) | 34.8 µM | 19.7 µM (inactive) | 20.4 µM (inactive) | 20.4 µM (inactive) | – | 18.7 µM (inactive) | > 100 µM (inactive) | 18.3 µM (inactive) | 47 µM (inactive) | 14.7 µM (inactive) | 16.1 µM (inactive) | 20.3 µM (inactive) | 7.96 µM (inactive) | > 100 µM (inactive) | – | 16.4 µM (inactive)
